Assay results from the supplement of paper PMC12205070.

Key:
Assay in all cases: normalised number of viable cells after treatment (fraction of control); higher = more viable cells (less drug effect)
P2 Initial = test system: P2 Initial (T-ALL xenograft cells from diagnosis)
Description: (§1)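 T-ALL PDX-derived cells (initial diagnosis or relapse samples of individual patients) co-cultured on hTERT-immortalized bone marrow MSCs in 384-well plates were treated with Cytarabine, Venetoclax, S-63845, A1331852 or FX1 (0.1 nM to 10,000 nM) for 72 h.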

P3 Relapse = test system: P3 Relapse (T-ALL xenograft cells from relapse)
Description: as §1

P1 Relapse = test system: P1 Relapse (T-ALL xenograft cells from relapse)
Description: as §1

P10 Relapse = test system: P10 Relapse (T-ALL xenograft cells from relapse)
Description: as §1

P8 Relapse = test system: P8 Relapse (T-ALL xenograft cells from relapse)
Description: as §1

P12 Relapse = test system: P12 Relapse (T-ALL xenograft cells from relapse)
Description: as §1

P8 Initial = test system: P8 Initial (T-ALL xenograft cells from diagnosis)
Description: as §1

P3 Initial = test system: P3 Initial (T-ALL xenograft cells from diagnosis)
Description: as §1

P6 Initial = test system: P6 Initial (T-ALL xenograft cells from diagnosis)
Description: as §1

P10 Initial = test system: P10 Initial (T-ALL xenograft cells from diagnosis)
Description: as §1

P6 Relapse = test system: P6 Relapse (T-ALL xenograft cells from relapse)
Description: as §1

P1 Initial = test system: P1 Initial (T-ALL xenograft cells from diagnosis)
Description: as §1

P12 Initial = test system: P12 Initial (T-ALL xenograft cells from diagnosis)
Description: as §1

P2 Relapse = test system: P2 Relapse (T-ALL xenograft cells from relapse)
Description: as §1

Nc1ccn([C@@H]2O[C@H](CO)[C@@H](O)[C@@H]2O)c(=O)n1 [Cytarabine]
Conditions | normalised number of viable cells
P1 Initial, 0.125 nM | 0.988
P1 Initial, 1 nM | 0.83
P1 Initial, 12.5 nM | 0.396
P1 Initial, 100 nM | 0.245
P1 Initial, 1250 nM | 0.23
P1 Initial, 10000 nM | 0.0865
P1 Relapse, 0.125 nM | 0.84
P1 Relapse, 1 nM | 0.683
P1 Relapse, 12.5 nM | 0.426
P1 Relapse, 100 nM | 0.354
P1 Relapse, 1250 nM | 0.235
P1 Relapse, 10000 nM | 0.224
P2 Initial, 0.998752 nM | 1.83
P2 Initial, 9.98752 nM | 1.97
P2 Initial, 99.8752 nM | 0.894
P2 Initial, 998.752 nM | 0.683
P2 Initial, 9987.52 nM | 0.631
P2 Relapse, 0.998752 nM | 0.981
P2 Relapse, 9.98752 nM | 0.99
P2 Relapse, 99.8752 nM | 0.973
P2 Relapse, 998.752 nM | 0.804
P2 Relapse, 9987.52 nM | 0.61
P3 Initial, 0.998752 nM | 1.04
P3 Initial, 9.98752 nM | 0.855
P3 Initial, 99.8752 nM | 0.14
P3 Initial, 998.752 nM | 0.0925
P3 Initial, 9987.52 nM | 0.0805
P3 Relapse, 0.998752 nM | 1.14
P3 Relapse, 9.98752 nM | 0.684
P3 Relapse, 99.8752 nM | 0.464
P3 Relapse, 998.752 nM | 0.306
P3 Relapse, 9987.52 nM | 0.143
P6 Initial, 0.998752 nM | 0.95
P6 Initial, 9.98752 nM | 0.6575
P6 Initial, 99.8752 nM | 0.454
P6 Initial, 998.752 nM | 0.248
P6 Initial, 9987.52 nM | 0.239
P6 Relapse, 0.998752 nM | 0.745
P6 Relapse, 9.98752 nM | 1.28
P6 Relapse, 99.8752 nM | 1.18
P6 Relapse, 998.752 nM | 0.902
P6 Relapse, 9987.52 nM | 0.852
P8 Initial, 0.998752 nM | 1.67
P8 Initial, 9.98752 nM | 1.54
P8 Initial, 99.8752 nM | 0.489
P8 Initial, 998.752 nM | 0.4715
P8 Initial, 9987.52 nM | 0.577
P8 Relapse, 0.998752 nM | 1.551
P8 Relapse, 9.98752 nM | 1.57
P8 Relapse, 99.8752 nM | 0.744
P8 Relapse, 998.752 nM | 0.821
P8 Relapse, 9987.52 nM | 0.599
P10 Initial, 0.998752 nM | 1.45
P10 Initial, 9.98752 nM | 1.4
P10 Initial, 99.8752 nM | 0.472
P10 Initial, 998.752 nM | 0.426
P10 Initial, 9987.52 nM | 0.427
P10 Relapse, 0.998752 nM | 1.08
P10 Relapse, 9.98752 nM | 1
P10 Relapse, 99.8752 nM | 0.737
P10 Relapse, 998.752 nM | 0.712
P10 Relapse, 9987.52 nM | 0.679
P12 Initial, 0.998752 nM | 1.33
P12 Initial, 9.98752 nM | 1.2
P12 Initial, 99.8752 nM | 0.327
P12 Initial, 998.752 nM | 0.313
P12 Initial, 9987.52 nM | 0.593
P12 Relapse, 0.998752 nM | 4.13
P12 Relapse, 9.98752 nM | 5.01
P12 Relapse, 99.8752 nM | 1.49
P12 Relapse, 998.752 nM | 0.76
P12 Relapse, 9987.52 nM | 0.446

CC1(C)CCC(CN2CCN(c3ccc(C(=O)NS(=O)(=O)c4ccc(NCC5CCOCC5)c([N+](=O)[O-])c4)c(Oc4cnc5[nH]ccc5c4)c3)CC2)=C(c2ccc(Cl)cc2)C1 [Venetoclax]
Conditions | normalised number of viable cells
P1 Initial, 0.125 nM | 1
P1 Initial, 1 nM | 0.841
P1 Initial, 12.5 nM | 0.423
P1 Initial, 100 nM | 0.345
P1 Initial, 1250 nM | 0.259
P1 Initial, 10000 nM | 0.0865
P1 Relapse, 0.125 nM | 1.02
P1 Relapse, 1 nM | 0.911
P1 Relapse, 12.5 nM | 0.504
P1 Relapse, 100 nM | 0.781
P1 Relapse, 1250 nM | 0.352
P1 Relapse, 10000 nM | 0.694
P2 Initial, 0.998752 nM | 1.58
P2 Initial, 9.98752 nM | 1.09
P2 Initial, 99.8752 nM | 0.725
P2 Initial, 998.752 nM | 0.56
P2 Initial, 9987.52 nM | 0.514
P2 Relapse, 0.998752 nM | 1.16
P2 Relapse, 9.98752 nM | 1.37
P2 Relapse, 99.8752 nM | 1.19
P2 Relapse, 998.752 nM | 0.933
P2 Relapse, 9987.52 nM | 0.412
P3 Initial, 0.998752 nM | 0.948
P3 Initial, 9.98752 nM | 0.925
P3 Initial, 99.8752 nM | 0.814
P3 Initial, 998.752 nM | 0.821
P3 Initial, 9987.52 nM | 0.139
P3 Relapse, 0.998752 nM | 1.18
P3 Relapse, 9.98752 nM | 1.15
P3 Relapse, 99.8752 nM | 1.104
P3 Relapse, 998.752 nM | 0.922
P3 Relapse, 9987.52 nM | 0.072
P6 Initial, 0.998752 nM | 1.17
P6 Initial, 9.98752 nM | 0.743
P6 Initial, 99.8752 nM | 0.5415
P6 Initial, 998.752 nM | 0.355
P6 Initial, 9987.52 nM | 0.269
P6 Relapse, 0.998752 nM | 1.31
P6 Relapse, 9.98752 nM | 1.12
P6 Relapse, 99.8752 nM | 0.554
P6 Relapse, 998.752 nM | 0.584
P6 Relapse, 9987.52 nM | 0.169
P8 Initial, 0.998752 nM | 2.58
P8 Initial, 9.98752 nM | 2.56
P8 Initial, 99.8752 nM | 2.09
P8 Initial, 998.752 nM | 1.89
P8 Initial, 9987.52 nM | 2.3
P8 Relapse, 0.998752 nM | 1.21
P8 Relapse, 9.98752 nM | 1.24
P8 Relapse, 99.8752 nM | 1.02
P8 Relapse, 998.752 nM | 0.744
P8 Relapse, 9987.52 nM | 0.732
P10 Initial, 0.998752 nM | 1.39
P10 Initial, 9.98752 nM | 1.41
P10 Initial, 99.8752 nM | 0.954
P10 Initial, 998.752 nM | 0.665
P10 Initial, 9987.52 nM | 0.21
P10 Relapse, 0.998752 nM | 0.866
P10 Relapse, 9.98752 nM | 1.17
P10 Relapse, 99.8752 nM | 0.717
P10 Relapse, 998.752 nM | 0.313
P10 Relapse, 9987.52 nM | 0.13
P12 Initial, 0.998752 nM | 1.15
P12 Initial, 9.98752 nM | 1.21
P12 Initial, 99.8752 nM | 0.923
P12 Initial, 998.752 nM | 0.978
P12 Initial, 9987.52 nM | 0.0715
P12 Relapse, 0.998752 nM | 5.7
P12 Relapse, 9.98752 nM | 4.1
P12 Relapse, 99.8752 nM | 4.2
P12 Relapse, 998.752 nM | 4.43
P12 Relapse, 9987.52 nM | 0.845
